One data set concerns calcium kidney stones. Kind of data set: Urinary risk of forming calcium kidney stones in individuals with oxalocalcium kidney stones, before and 15 days after treatment start. The class given is in vivo, human. Particulars: for drop of the risk of forming calcium stones: 15 days after treatment start, citrate 6.48 g/day (Group II, potassium citrate tablets), phytate 120 mg/day (Group III, dietetic supplement). The protocol:
These individuals have been divided into three groups: 19 individuals with kidney stones (Group I), 38 individuals with kidney stones (Group II) and 17 individuals with kidney stones (Group III). The urinary risk to form calcium kidney stones was evaluated for each individual before being subjected to any pharmacological treatment. […] 15 days after treatment starting, the urinary risk of forming calcium kidney stones was evaluated again for each individual.

The conditions of data set [1]: cited from earlier work.

Structures can show the parent of a compound that is named as a salt.

Consider `O=C(O)CC(O)(CC(=O)O)C(=O)O` [citrate, potassium citrate, reference compound], for which, in the data set with calcium kidney stones, the “drop of the risk of forming calcium stones” value is reported as 52%.
Consider `O=P(O)(O)O[C@H]1[C@H](OP(=O)(O)O)[C@@H](OP(=O)(O)O)[C@H](OP(=O)(O)O)[C@@H](OP(=O)(O)O)[C@H]1OP(=O)(O)O` [phytate, inositol hexaphosphate], for which the “drop of the risk of forming calcium stones” value in the data set with calcium kidney stones is recorded as 50%. Besides, in the data set with calcium kidney stones (treatment of calcium kidney stones, compared with citrate), the “effect on urine pH” value is on record as “does not cause increases of the urine pH”. The “levels of phytates in urine and blood without intake” value in data set [1] (after 10 days without a phytate intake) is listed as “drop to practically undetectable values”. In addition, the “maximum urinary excretions as share of the total intake” value in data set [1] (diet supplemented with products rich in phytates) is 1-5%. In addition, the “intake above which the amount excreted in urine does not increase” value in data set [1] (dose-dependent urinary excretion) is listed as 20.9 mg/kg of body weight.

These data come from US20020136817A1 (priority 1999, published 2002).
